Assay results from patent publication US9340555B2, “Compounds as tyrosine kinase modulators” (Allergan, Inc., priority 2009, dated 2016).

Assays:
[1] = target: human VEGF receptor (VEGFR-2) (Homo sapiens (Human), UniProt P35968); test: VEGFR2 Kinase Assay (Enzymic VEGFR2); type: biochemical; conditions: His-VEGFR-2 cytoplasmic domain, 3.6 µM ATP
Experimental: VEGFR2 Kinase Assay The cytoplasmic domain of the human VEGF receptor (VEGFR-2) was expressed as a Histidine-tagged fusion protein following infection of insect cells using an His engineered baculovirus. […] Kinase assays were performed in 96 well microtiter plates that were coated overnight with 30 µg of poly-Glu-[…]:1) in 10 mM Phosphate Buffered Saline (PBS), pH 7.2-7.4. The plates were incubated with 1% BSA and then washed four times with PBS prior to starting the reaction. […] Reactions were initiated by the addition 0.5 ng of purified protein. Following a ten minute incubation at 25° C., the reactions were washed four times with PBS containing 0.05% Tween-20. 100 µl of a monoclonal anti-phosphotyrosine antibody-peroxidase conjugate was diluted 1:10000 in PBS-Tween-20 and added to the wells for 30 minutes. Following four washes with PBS-Tween-20, 100 µl of 0-phenylenediamine Dihydrochloride in Phosphate-citrate buffer, containing urea hydrogen peroxide, was added to the wells for 7 minutes as a colorimetric substrate for the peroxidase. […] IC50 values for compound inhibition were calculated directly from graphs of optical density (arbitrary units) versus compound concentration following subtraction of blank values.

VEGFR2 = VEGFR2 (Homo sapiens (Human), UniProt P35968); test: VEGF Stimulated Ca++ Signal In Vitro (Cellular VEGFR2, FLIPR); type: cell-based; conditions: HUVEC, VEGF stimulation (5 ng/mL), intracellular calcium
PDGFRβ = PDGFRβ (Homo sapiens (Human), UniProt P09619); test: Enzymic PDGFRβ; type: biochemical
Chain of PDGFRβ (P09619 33-1106, species assumed): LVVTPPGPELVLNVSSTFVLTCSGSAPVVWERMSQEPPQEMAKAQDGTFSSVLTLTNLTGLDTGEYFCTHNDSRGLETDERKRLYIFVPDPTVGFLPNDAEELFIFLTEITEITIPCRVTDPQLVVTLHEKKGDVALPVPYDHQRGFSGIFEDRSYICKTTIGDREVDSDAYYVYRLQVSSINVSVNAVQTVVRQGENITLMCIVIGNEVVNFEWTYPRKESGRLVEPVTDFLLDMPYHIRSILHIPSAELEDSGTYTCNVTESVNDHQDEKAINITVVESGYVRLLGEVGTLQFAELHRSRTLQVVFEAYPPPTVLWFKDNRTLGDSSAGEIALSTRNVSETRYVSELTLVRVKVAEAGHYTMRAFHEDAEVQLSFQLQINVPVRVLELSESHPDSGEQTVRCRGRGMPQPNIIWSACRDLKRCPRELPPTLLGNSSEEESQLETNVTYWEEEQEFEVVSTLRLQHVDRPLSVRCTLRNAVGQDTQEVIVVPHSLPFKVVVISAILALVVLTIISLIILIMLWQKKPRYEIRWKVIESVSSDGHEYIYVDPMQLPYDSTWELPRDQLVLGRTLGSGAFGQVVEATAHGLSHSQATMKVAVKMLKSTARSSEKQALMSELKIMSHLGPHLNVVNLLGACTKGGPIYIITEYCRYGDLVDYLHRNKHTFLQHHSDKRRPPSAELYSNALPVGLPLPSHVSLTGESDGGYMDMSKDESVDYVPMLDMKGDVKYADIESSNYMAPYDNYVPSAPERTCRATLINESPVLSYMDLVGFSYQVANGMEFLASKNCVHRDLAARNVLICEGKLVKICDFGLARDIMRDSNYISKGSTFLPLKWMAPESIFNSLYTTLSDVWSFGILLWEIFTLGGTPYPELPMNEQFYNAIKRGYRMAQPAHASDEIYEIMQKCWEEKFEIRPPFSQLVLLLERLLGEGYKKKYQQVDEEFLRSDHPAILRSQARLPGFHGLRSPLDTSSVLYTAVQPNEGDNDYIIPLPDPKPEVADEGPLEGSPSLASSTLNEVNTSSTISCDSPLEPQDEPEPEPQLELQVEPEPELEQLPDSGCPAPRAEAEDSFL

Chain of human VEGF receptor (VEGFR-2) (P35968 786-1356): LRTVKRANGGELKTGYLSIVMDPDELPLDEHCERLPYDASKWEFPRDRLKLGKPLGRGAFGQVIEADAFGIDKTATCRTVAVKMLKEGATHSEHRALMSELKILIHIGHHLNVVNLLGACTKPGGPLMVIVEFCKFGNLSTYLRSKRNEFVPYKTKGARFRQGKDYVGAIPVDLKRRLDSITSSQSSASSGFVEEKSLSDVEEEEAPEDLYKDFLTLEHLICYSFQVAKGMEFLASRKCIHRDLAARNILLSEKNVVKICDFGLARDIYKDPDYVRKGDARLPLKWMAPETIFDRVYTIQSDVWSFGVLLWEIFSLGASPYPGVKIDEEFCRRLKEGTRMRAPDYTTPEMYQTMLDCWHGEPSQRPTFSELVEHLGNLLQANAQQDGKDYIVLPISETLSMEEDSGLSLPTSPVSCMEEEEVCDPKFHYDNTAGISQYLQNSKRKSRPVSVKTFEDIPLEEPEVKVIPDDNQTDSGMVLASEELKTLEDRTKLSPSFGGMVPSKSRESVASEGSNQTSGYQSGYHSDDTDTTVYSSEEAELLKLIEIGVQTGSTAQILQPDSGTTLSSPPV
Chain of VEGFR2 (P35968 20-1356): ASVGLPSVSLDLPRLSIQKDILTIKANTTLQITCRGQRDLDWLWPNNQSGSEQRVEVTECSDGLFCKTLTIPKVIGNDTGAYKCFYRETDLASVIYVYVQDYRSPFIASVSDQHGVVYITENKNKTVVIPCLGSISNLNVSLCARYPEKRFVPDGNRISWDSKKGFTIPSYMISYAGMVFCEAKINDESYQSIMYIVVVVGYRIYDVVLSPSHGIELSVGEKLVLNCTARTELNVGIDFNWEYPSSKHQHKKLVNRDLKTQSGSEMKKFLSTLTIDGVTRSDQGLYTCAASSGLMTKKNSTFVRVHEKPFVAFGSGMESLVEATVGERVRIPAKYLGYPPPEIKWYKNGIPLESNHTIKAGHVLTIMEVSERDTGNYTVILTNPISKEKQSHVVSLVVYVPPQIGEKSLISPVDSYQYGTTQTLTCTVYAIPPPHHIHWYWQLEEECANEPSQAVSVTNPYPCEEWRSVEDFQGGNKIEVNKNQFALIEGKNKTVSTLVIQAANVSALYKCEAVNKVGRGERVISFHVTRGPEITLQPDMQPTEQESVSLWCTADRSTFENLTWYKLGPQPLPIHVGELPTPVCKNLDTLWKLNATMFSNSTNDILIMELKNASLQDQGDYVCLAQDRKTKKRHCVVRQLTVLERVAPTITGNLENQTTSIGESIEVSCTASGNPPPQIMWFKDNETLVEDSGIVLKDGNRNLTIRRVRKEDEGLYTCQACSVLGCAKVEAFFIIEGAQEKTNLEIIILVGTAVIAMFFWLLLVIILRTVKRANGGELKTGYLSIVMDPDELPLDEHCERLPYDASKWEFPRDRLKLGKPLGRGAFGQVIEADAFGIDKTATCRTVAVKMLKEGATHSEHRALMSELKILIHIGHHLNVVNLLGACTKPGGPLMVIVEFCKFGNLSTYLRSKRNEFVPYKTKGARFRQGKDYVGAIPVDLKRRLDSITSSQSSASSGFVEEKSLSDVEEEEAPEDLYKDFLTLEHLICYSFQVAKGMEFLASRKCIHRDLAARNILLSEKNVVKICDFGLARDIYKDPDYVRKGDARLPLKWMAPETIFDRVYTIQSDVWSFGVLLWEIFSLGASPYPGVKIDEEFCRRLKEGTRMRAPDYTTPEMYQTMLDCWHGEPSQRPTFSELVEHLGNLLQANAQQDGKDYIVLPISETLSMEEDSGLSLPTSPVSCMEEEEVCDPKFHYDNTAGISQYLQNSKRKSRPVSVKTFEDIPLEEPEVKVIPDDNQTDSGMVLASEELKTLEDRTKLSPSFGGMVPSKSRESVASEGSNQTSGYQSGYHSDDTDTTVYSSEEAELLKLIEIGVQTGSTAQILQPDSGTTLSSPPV

Structure (SMILES)	IC50 [1]	IC50 (VEGFR2)	IC50 (PDGFRβ)
COC(=O)[C@@H]1C[C@@H](O)CN1CCCNC(=O)c1cc2nccc(Oc3ccc(NC(=O)Nc4cc(C)ccc4F)cc3)c2s1 (relative stereo) [Example 17, methyl rel-(2R,4S)-1-{3-[({7-[4-({[(2-fluoro-5-methylphenyl)amino]carbonyl}amino)phenoxy]thieno[3,2-b]pyridin-2-yl}carbonyl)amino]propyl}-4-hydroxypyrrolidine-2-carboxylate]	0.004 µM	–	–
COC(=O)c1cc2nccc(Oc3ccc(NC(=O)Nc4cc(C)ccc4F)cc3)c2s1 [Compound F1, Methyl 7-[4-({[(2-fluoro-5-methylphenyl)amino]carbonyl}amino)phenoxy]thieno[3,2-b]pyridine-2-carboxylate]	0.018 µM	0.002 µM	–
COC(=O)c1cc2nccc(Oc3cccc(NC(=O)Nc4cc(C)ccc4F)c3)c2s1 [Compound F3, Methyl 7-[3-({[(2-fluoro-5-methylphenyl)amino]carbonyl}amino)phenoxy]thieno[3,2-b]pyridine-2-carboxylate]	0.021 µM	0.035 µM	–
COC(=O)c1cc2nccc(-c3ccc(NC(=O)Nc4cc(C)ccc4F)cc3)c2s1 [Compound F4, Methyl 7-[4-({[(2-fluoro-5-methylphenyl)amino]carbonyl}amino)phenyl]thieno[3,2-b]pyridine-2-carboxylate]	10 µM	10 µM	–
Cc1ccc(F)c(NC(=O)Nc2ccc(-c3ccnc4cc(C(=O)O)sc34)cc2)c1 [Compound F5, 7-[4-({[(2-fluoro-5-methylphenyl)amino]carbonyl}amino)phenyl]thieno[3,2-b]pyridine-2-carboxylic acid]	10 µM	10 µM	–
Cc1ccc(F)c(NC(=O)Nc2ccc(Oc3ccnc4cc(C(=O)NCCC(=O)O)sc34)cc2)c1 [Compound F6, 3-[({7-[4-({[(2-fluoro-5-methylphenyl)amino]carbonyl}amino)phenoxy]thieno[3,2-b]pyridin-2-yl}carbonyl)amino]propanoic acid]	0.011 µM	–	–
Cc1ccc(F)c(NC(=O)Nc2ccc(Oc3ccnc4cc(C(=O)NCCC(=O)O)sc34)cc2F)c1 [Compound F7, 3-[({7-[3-fluoro-4-({[(2-fluoro-5-methylphenyl)amino]carbonyl}amino)phenoxy]thieno[3,2-b]pyridin-2-yl}carbonyl)amino]propanoic acid]	0.01 µM	–	–
Cc1ccc(F)c(NC(=O)Nc2ccc(Oc3ccnc4cc(C(=O)O)sc34)cc2F)c1 [Compound F8, 7-[3-fluoro-4-({[(2-fluoro-5-methylphenyl)amino]carbonyl}amino)phenoxy]thieno[3,2-b]pyridine-2-carboxylic acid]	0.011 µM	–	–
COC(=O)C1CCCN1CCCNC(=O)c1cc2nccc(Oc3ccc(NC(=O)Nc4cc(C)ccc4F)c(F)c3)c2s1 (stereo not shown) [Example 42, methyl 1-{3-[({7-[3-fluoro-4-({[(2-fluoro-5-methylphenyl)amino]carbonyl}amino)phenoxy]thieno[3,2-b]pyridin-2-yl}carbonyl)amino]propyl}pyrrolidine-2-carboxylate]	0.006 µM	0.004 µM	–
Cc1ccc(F)c(NC(=O)Nc2ccc(Oc3ccnc4cc(C(=O)NCCCN5CCCC5)sc34)cc2F)c1 [Example 43, 7-[3-fluoro-4-({[(2-fluoro-5-methylphenyl)amino]carbonyl}amino)phenoxy]-N-(3-pyrrolidin-1-ylpropyl)thieno[3,2-b]pyridine-2-carboxamide]	0.003 µM	0.006 µM	–
Cc1ccc(F)c(NC(=O)Nc2ccc(Oc3ccnc4cc(C(=O)NCCCNC(=O)OC(C)(C)C)sc34)cc2F)c1 [Example 44, tert-butyl {3-[({7-[3-fluoro-4-({[(2-fluoro-5-methylphenyl)amino]carbonyl}amino)phenoxy]thieno[3,2-b]pyridin-2-yl}carbonyl)amino]propyl}carbamate]	0.011 µM	0.016 µM	–
Cc1ccc(F)c(NC(=O)Nc2ccc(Oc3ccnc4cc(C(=O)NCCCN)sc34)cc2F)c1 [Example 45, N-(3-aminopropyl)-7-[3-fluoro-4-({[(2-fluoro-5-methylphenyl)amino]carbonyl}amino)phenoxy]thieno[3,2-b]pyridine-2-carboxamide]	0.007 µM	0.01 µM	–
Cc1ccc(F)c(NC(=O)Nc2ccc(Oc3ccnc4cc(C(=O)N[C@@H](CCC(=O)OC(C)(C)C)C(=O)O)sc34)cc2F)c1 [Example 48, (2S)-5-tert-butoxy-2-[({7-[3-fluoro-4-({[(2-fluoro-5-methylphenyl)amino]carbonyl}amino)phenoxy]thieno[3,2-b]pyridin-2-yl}carbonyl)amino]-5-oxopentanoic acid]	0.007 µM	–	–
Cc1ccc(F)c(NC(=O)Nc2ccc(Oc3ccnc4cc(C(=O)NCCCO)sc34)cc2F)c1 [Example 53, 7-[3-fluoro-4-({[(2-fluoro-5-methylphenyl)amino]carbonyl}amino)phenoxy]-N-(3-hydroxypropyl)thieno[3,2-b]pyridine-2-carboxamide]	0.012 µM	–	–
COC(=O)CC[C@H](NC(=O)c1cc2nccc(Oc3ccc(NC(=O)Nc4cc(C)ccc4F)c(F)c3)c2s1)C(=O)OC [Example 54, dimethyl (2S)-2-[({7-[3-fluoro-4-({[(2-fluoro-5-methylphenyl)amino]carbonyl}amino)phenoxy]thieno[3,2-b]pyridin-2-yl}carbonyl)amino]pentanedioate]	0.034 µM	0.004 µM	–
Cc1ccc(F)c(NC(=O)Nc2ccc(Oc3ccnc4cc(C(=O)N=S(C)(C)=O)sc34)cc2F)c1 [Example 58, N-[dimethyl(oxido)-lambda˜4˜-sulfanylidene]-7-[3-fluoro-4-({[(2-fluoro-5-methylphenyl)amino]carbonyl}amino)phenoxy]thieno[3,2-b]pyridine-2-carboxamide]	0.003 µM	–	–
Cc1ccc(F)c(NC(=O)Nc2ccc(Oc3ccnc4cc(C(=O)N=S(C)(C)=O)sc34)cc2)c1 [Example 61, N-[dimethyl(oxido)-lambda˜4˜-sulfanylidene]-7-[4-({[(2-fluoro-5-methylphenyl)amino]carbonyl}amino)phenoxy]thieno[3,2-b]pyridine-2-carboxamide]	0.002 µM	–	–

Second part, the compound after the results:

IC50 [1]	IC50 (VEGFR2)	IC50 (PDGFRβ)	Structure (SMILES)
0.024 µM	–	0.169 µM	COC(=O)c1cc2nccc(Oc3cccc(NC(=O)c4occc4C)c3)c2s1 [Example 71, Methyl 7-{3-[(3-methyl-2-furoyl)amino]phenoxy}thieno[3,2-b]pyridine-2-carboxylate]
0.009 µM	–	0.191 µM	CCNC(=O)c1cc2nccc(Oc3cccc(NC(=O)c4occc4C)c3)c2s1 [Example 73, N-ethyl-7-{3-[(3-methyl-2-furoyl)amino]phenoxy}thieno[3,2-b]pyridine-2-carboxamide]
0.027 µM	–	0.424 µM	CCN(CC)C(=O)c1cc2nccc(Oc3cccc(NC(=O)c4occc4C)c3)c2s1 [Example 74, N,N-diethyl-7-{3-[(3-methyl-2-furoyl)amino]phenoxy}thieno[3,2-b]pyridine-2-carboxamide]
0.011 µM	–	0.146 µM	Cc1ccoc1C(=O)Nc1cccc(Oc2ccnc3cc(C(=O)NCCCO)sc23)c1 [Example 76, N-(3-hydroxypropyl)-7-{3-[(3-methyl-2-furoyl)amino]phenoxy}thieno[3,2-b]pyridine-2-carboxamide]
0.017 µM	–	0.392 µM	Cc1ccoc1C(=O)Nc1cccc(Oc2ccnc3cc(C(=O)NCCO)sc23)c1 [Example 77, N-(2-hydroxyethyl)-7-{3-[(3-methyl-2-furoyl)amino]phenoxy}thieno[3,2-b]pyridine-2-carboxamide]
0.014 µM	–	0.323 µM	Cc1ccoc1C(=O)Nc1cccc(Oc2ccnc3cc(C(=O)NCCc4nn[nH]n4)sc23)c1 [Example 78, 7-{3-[(3-methyl-2-furoyl)amino]phenoxy}-N-[2-(2H-tetrazol-5-yl)ethyl]thieno[3,2-b]pyridine-2-carboxamide]
0.009 µM	–	0.146 µM	Cc1ccoc1C(=O)Nc1cccc(Oc2ccnc3cc(C(=O)OCCCO)sc23)c1 [Example 79, 3-hydroxypropyl 7-{3-[(3-methyl-2-furoyl)amino]phenoxy}thieno[3,2-b]pyridine-2-carboxylate]
0.017 µM	–	0.212 µM	Cc1ccoc1C(=O)Nc1cccc(Oc2ccnc3cc(C(=O)OCCO)sc23)c1 [Example 80, 2-hydroxyethyl 7-{3-[(3-methyl-2-furoyl)amino]phenoxy}thieno[3,2-b]pyridine-2-carboxylate]
0.019 µM	–	0.273 µM	COCCOC(=O)c1cc2nccc(Oc3cccc(NC(=O)c4occc4C)c3)c2s1 [Example 81, 2-methoxyethyl 7-{3-[(3-methyl-2-furoyl)amino]phenoxy}thieno[3,2-b]pyridine-2-carboxylate]
0.011 µM	–	0.238 µM	COC(=O)CNCCCNC(=O)c1cc2nccc(Oc3cccc(NC(=O)c4occc4C)c3)c2s1 [Example 82, Methyl [(3-{[(7-{3-[(3-methyl-2-furoyl)amino]phenoxy}thieno[3,2-b]pyridin-2-yl)carbonyl]amino}propyl)amino]acetate]
